Patent publication US8980226B2, “Aerosolized fosfomycin/aminoglycoside combination for the treatment of bacterial respiratory infections” (Gilead Sciences, Inc., priority 2004, dated 2015)
In brackets after ≈: the same amount, converted by molar mass. Where two headings read alike, the source gives them in different places.

Key:
[1] = test system: 100 P. aeruginosa strains isolated from lung sputum samples from cystic fibrosis patients; test: MIC50 and MIC90 for 100 P. aeruginosa strains, CF mucin binding model (+mucin); assay type: cell-based; settings: Pseudomonas aeruginosa; for MIC90: read-out: MIC90 Mucin (+)
Method: The MICs of fosfomycin alone, tobramycin alone, or combinations of fosfomycin plus tobramycin were determined by the agar-plate dilution method according to NCCLS guidelines (NCCLS, 2003). Bacterial strains were streaked onto Trypic Soy Agar plates (PML Microbiologicals, Wilsonville, Oreg.) containing 5% defibrinated sheep blood (hereafter referred to as blood agar plates) and incubated overnight at 35° C. Two to three bacterial colonies from the overnight cultures were inoculated into 3 mL of sterile normal saline, vortexed briefly, and adjusted to a 0.5 McFarland standard (NCCLS, 2003). The bacterial suspension was diluted 1:40 in sterile normal saline and served as the inoculum. Mueller-Hinton agar plates (hereafter referred to as MHA) were prepared by combining 16 g of agarose (Becton-Dickinson, Sparks, Md.), 22 g of Mueller-Hinton broth powder (Becton-Dickinson, Sparks, Md.), and adjusted to 1 L with distilled water. The agar was sterilized by autoclaving, cooled to 55° C., and supplemented with 25 μg/mL of glucose-6-phosphate (Sigma-Aldrich, St. Louis, Mo.). Twenty-five mL of cooled agar was aliquoted into 50 mL conical tubes and supplemented with appropriate concentrations of antibiotic to achieve concentrations ranging from 0.06 μg/mL to 512 μg/mL. After gently mixing the agar and antibiotic, the suspension was poured into sterile 100 mm petri dishes and allowed to solidify at room temperature. The antibiotic agar plates were inoculated with approximately 2×10^4 CFU/spot with a 48-point inoculator (Sigma-Aldrich, St. Louis, Mo.). The MIC was defined as the lowest concentration of antibiotic (s) that prevented visible growth after incubation for 18-20 hours at 35° C. The efficacy of a particular antibiotic or antibiotic combination on large populations of P. aeruginosa was determined by calculating the MIC50 and MIC90 values. The MIC50 value was defined as the concentration of antibiotic(s) which inhibited 50% of the P. aeruginosa strains. The MIC90 value was defined as the concentration of antibiotic(s) which inhibited 90% of the P. aeruginosa strains (Wiedemann and Grimm, 1996).
The MICs of fosfomycin alone, tobramycin alone, or combinations of fosfomycin plus tobramycin were determined for P. aeruginosa strains in the presence of porcine gastric mucin to evaluate the effect of mucin and protein binding on antibiotic activity. Methodologies were identical to that described in Example 5, Method A, with the exception that 2% (weight/volume) porcine gastric mucin (Sigma Chemical Co., St. Louis, Mo.) was added to the MHA prior to autoclaving.

[2] = test system: P. aeruginosa; assay type: cell-based; settings: for Frequency of Resistance: plates with 128 μg/mL fosfomycin, 8 μg/mL tobramycin, or both
Method: The frequency of single-step spontaneous resistance mutation was determined for 5 susceptible P. aeruginosa strains. The bacterial inoculum was prepared by inoculating 5 mL of CAMHB with 2-3 bacterial colonies and incubating at 35° C. in a shaking water bath (250 rpm) for 18 h. A 1:20 dilution of the overnight culture was made into 50 mL of fresh CAMHB in a 125 ml erlenmyer flask and incubated at 35° C. in a shaking waterbath (250 rpm) for 8 hours. Cultures were centrifuged at 2,500 rpm, room temperature, for 20 min. The supernatant was decanted off and the cell pellet from the 50 mL of culture resuspended in 500 μl-1000 μl CAMHB. The CFU/mL in the bacterial suspension was determined by making 10-fold serial dilutions in sterile normal saline, and spreading 100 μl aliquots on blood agar plates. Culture plates were incubated at 35° C. for 18-24 hours and the number of colonies enumerated manually. One hundred microliters of bacterial cell suspension (approximately 10^9 CFU) was spread onto MHA plates containing 128 μg/mL of fosfomycin, 8 μg/mL of tobramycin, or 128 μg/mL of fosfomycin plus 8 μg/mL of tobramycin. The culture plates were incubated at 35° C. for 48-72 hours and the number of colonies on each plate was enumerated manually. The frequency of resistance was calculated by dividing the number of bacteria growing at the defined antibiotic concentration by the number of bacteria in the original inoculum. Representative mutants were evaluated for changes in MIC to fosfomycin alone, tobramycin alone, and fosfomycin plus tobramycin combinations as described in Example 5, Method A.

[3] = test system: P. aeruginosa ATCC 27853; test: MIC for P. aeruginosa ATCC 27853; assay type: cell-based; settings: Pseudomonas aeruginosa, ATCC27853
Method: E. coli ATCC 25922 and S. aureus ATCC 29213 were used as quality control stains. Bacterial strains were streaked onto blood agar plates, and incubated at 35° C. for 18 hours. Two to three bacterial colonies from the overnight cultures were inoculated into 3 mL of sterile normal saline, vortexed briefly, and adjusted to a 0.5 McFarland standard (NCCLS, 2003). The bacterial suspension was diluted 1:100 in cation-adjusted Mueller-Hinton broth (hereafter referred to as CAMHB). […] The MIC was defined as the lowest concentration of antibiotic (s) that prevented visible growth after incubation at 35° C. for 18-24 hours. […] Two to three bacterial colonies were inoculated into 10 mL CAMHB and incubated at 35° C. in a shaking water bath (250 rpm) for 18-24 hours. […] The resulting culture was adjusted to a 0.5 McFarland standard (NCCLS, 2003). […] Ten milliliter aliquots were then pipeted into 50 mL conical tubes. […] The killing activity of fosfomycin plus amikacin, arbekacin, dibikacin, gentamicin, kanamycin, […], neomycin, streptomycin, or tobramycin were also compared to the killing activity of their individual components alone. […] A no drug control was run in each experiment. Cultures were incubated with antibiotic at 35° C. in a shaking (250 rpm) water bath for 24 hours. […] Culture plates were incubated at 35° C. for 18-24 hours and the number of colonies enumerated manually. […]

[4] = test system: E. coli, Proteus spp., Salmonella spp., Shigella spp., and S. marcescens; settings: Forsgren and Walder, 1983; cited from earlier work
[5] = in vivo; cited from earlier work
[6] = 100 P. aeruginosa strains, 2% porcine gastric mucin
[7] = mutants of P. aeruginosa ATCC 27853
[8] = mutants of P. aeruginosa COR-002
[9] = mutants of P. aeruginosa COR-003
[10] = mutants of P. aeruginosa COR-013
[11] = mutants of P. aeruginosa COR-014

| Compound | MIC90 [1] [µg/mL] | MIC50 [1, 6] [µg/mL] | Frequency of Resistance ([2]; P. aeruginosa ATCC 27853) | Frequency of Resistance ([2]; P. aeruginosa COR-002) | Frequency of Resistance ([2]; P. aeruginosa COR-003) | Frequency of Resistance ([2]; P. aeruginosa COR-013) | Frequency of Resistance ([2]; P. aeruginosa COR-014) | Fold Increase in MIC after a single exposure to antibiotic [2, 7] | Fold Increase in MIC after a single exposure to antibiotic [2, 8] | Fold Increase in MIC after a single exposure to antibiotic [2, 9] | Fold Increase in MIC after a single exposure to antibiotic [2, 10] | Fold Increase in MIC after a single exposure to antibiotic [2, 11] | MIC [3] [µg/mL] | fosfomycin concentrations at which the species are generally inhibited [4] [µg/mL] | concentrations in normal lung [5] [ng/mL] | peak serum concentrations [5] [µg/mL] | time of peak serum concentrations [5] [h] | MIC90 [1, 6] [µg/mL] | increase in MIC of mutants after a single exposure ([2]; range over the P. aeruginosa mutants) |
| --- | --- | --- | --- | --- | --- | --- | --- | --- | --- | --- | --- | --- | --- | --- | --- | --- | --- | --- | --- |
| C[C@@H]1O[C@@H]1P(=O)(O)O [Fosfomycin] | 128 | 64 | 4.1 × 10^−5 | 1.4 × 10^−3 | 5.5 × 10^−4 | 6.4 × 10^−3 | 1.5 × 10^−5 | 128 | >256 | >256 | >64 | >512 | 4 (≈ 29 µM) | ≤ 64 | 1000 to 13000 | 25 to 95 | 1 to 2 |  |  |
| NC[C@H]1O[C@H](O[C@H]2[C@H](O)[C@@H](O[C@H]3O[C@H](CO)[C@@H](O)[C@H](N)[C@H]3O)[C@H](N)C[C@@H]2N)[C@H](N)C[C@@H]1O [Tobramycin] |  | 16 | 3.4 × 10^−6 | 6.7 × 10^−6 | 3.2 × 10^−6 | 2.6 × 10^−6 | 5.0 × 10^−6 | 1 | 1 | 2 | 8 | 16 |  |  |  |  |  | 64 | 2-16 fold |
